# Laboratory results as given in ChEMBL document CHEMBL1150587, “Evaluation of the potential cancer chemotherapeutic efficacy of natural product isolates employing in vivo hollow fiber tests” (J Nat Prod, 2002).
# The source made the active and inactive calls. The rule behind the calls is not given here.
# Key:
# Lu1 [1] = experiment: Growth inhibition of human Lu1 cells implanted intraperitoneally to NCr nu/nu mouse at15.5 to 124 umol/kg, ip administered from day 3 to 6 after implantation measured on day 7 by MTT-based hollow-fiber test; assay type: functional
# Lu1 [2] = experiment: Growth inhibition of human Lu1 cells implanted subcutaneously to NCr nu/nu mouse at15.5 to 124 umol/kg, ip administered from day 3 to 6 after implantation measured on day 7 by MTT-based hollow-fiber test; assay type: functional
# Mus musculus [3] = experiment: Toxicity in NCr nu/nu mouse subcutaneously implanted with human Lu1 cells assessed as body weight change at 15.5 to 124 umol/kg, ip administered from day 3 to 6 after implantation measured on day 7; assay type: organism-based; settings: in vivo
# Mus musculus [4] = experiment: Toxicity in human Lu1 cells implanted NCr nu/nu mouse at 516 umol/kg, ip administered from day 3 to 6 after implantation measured on day 7 by hollow-fiber test; assay type: organism-based; settings: in vivo
# Mus musculus [5] = experiment: Toxicity in human Lu1 cells implanted NCr nu/nu mouse assessed as body weight loss at 252 umol/kg, ip administered from day 3 to 6 after implantation measured on day 7 by hollow-fiber test; assay type: organism-based; settings: in vivo
# SK-MEL-2 [6] = experiment: Cytotoxicity against human SK-MEL-2 cells after 72 hrs by SRB assay; assay type: functional, cell-based; settings: SK-MEL-2, 72 h
# P388 [7] = experiment: Cytotoxicity against mouse P388 cells after 72 hrs by SRB assay; assay type: functional, cell-based; settings: P388, 72 h
# MCF7 [8] = experiment: Cytotoxicity against human MCF7 cells after 72 hrs by SRB assay; settings: MCF7, 72 h
# LNCaP [9] = experiment: Cytotoxicity against human LNCAP cells after 72 hrs by SRB assay; assay type: functional, cell-based
# Lu1 [10] = experiment: Cytotoxicity against human Lu1 cells after 72 hrs by SRB assay; assay type: functional, cell-based; settings: Lu1, 72 h
# [11] = Cytotoxicity against human KBV1 cells after 72 hrs by SRB assay; assay type: functional, cell-based; settings: KB-V1, 72 h
# KB [12] = experiment: Cytotoxicity against human KB cells after 72 hrs by SRB assay; assay type: functional, cell-based
# Col2 = experiment: Cytotoxicity against human Col2 cells after 72 hrs by SRB assay; assay type: functional, cell-based; settings: Col2, 72 h
# [13] = Cytotoxicity against human BC1 cells after 72 hrs by SRB assay; settings: BC1, 72 h
# SW626 [14] = experiment: Cytotoxicity against human SW626 cells after 72 hrs by SRB assay; assay type: functional, cell-based; settings: SW626, 72 h
# KB [15] = experiment: Growth inhibition of human KB cells implanted subcutaneously to NCr nu/nu mouse at 72.6 to 290.7 umol/kg, ip administered from day 3 to 6 after implantation measured on day 7 by MTT-based hollow-fiber test; assay type: functional
# MCF7 [16] = experiment: Growth inhibition of human MCF7 cells implanted subcutaneously to NCr nu/nu mouse at 72.6 to 290.7 umol/kg, ip administered from day 3 to 6 after implantation measured on day 7 by MTT-based hollow-fiber test; assay type: functional
# P388 [17] = experiment: Growth inhibition of mouse P388 cells implanted subcutaneously to NCr nu/nu mouse at 72.6 to 290.7 umol/kg, ip administered from day 3 to 6 after implantation measured on day 7 by MTT-based hollow-fiber test; assay type: functional
# Mus musculus [18] = experiment: Toxicity in tumor cell implanted NCr nu/nu mouse assessed as body weight change at 72.6 umol/kg, ip administered from day 3 to 6 after implantation measured on day 7; assay type: organism-based; settings: in vivo
# Mus musculus [19] = experiment: Toxicity in tumor cell implanted NCr nu/nu mouse assessed as body weight change at 145.3 umol/kg, ip administered from day 3 to 6 after implantation measured on day 7; assay type: organism-based; settings: in vivo
# Mus musculus [20] = experiment: Toxicity in tumor cell implanted NCr nu/nu mouse assessed as body weight change at 290.7 umol/kg, ip administered from day 3 to 6 after implantation measured on day 7; assay type: organism-based; settings: in vivo
# Lu1 [21] = experiment: Growth inhibition of human Lu1 cells implanted intraperitoneally to NCr nu/nu mouse at 72.6 to 290.7 umol/kg, ip administered from day 3 to 6 after implantation measured on day 7 by MTT-based hollow-fiber test; assay type: functional
# SW626 [22] = experiment: Growth inhibition of human SW626 cells implanted intraperitoneally to NCr nu/nu mouse at 72.6 to 290.7 umol/kg, ip administered from day 3 to 6 after implantation measured on day 7 by MTT-based hollow-fiber test; assay type: functional
# LNCaP [23] = experiment: Growth inhibition of human LNCAP cells implanted intraperitoneally to NCr nu/nu mouse at 72.6 to 290.7 umol/kg, ip administered from day 3 to 6 after implantation measured on day 7 by MTT-based hollow-fiber test; assay type: functional
# SK-MEL-2 [24] = experiment: Growth inhibition of human SK-MEL-2 cells implanted intraperitoneally to NCr nu/nu mouse at 72.6 to 290.7 umol/kg, ip administered from day 3 to 6 after implantation measured on day 7 by MTT-based hollow-fiber test; assay type: functional
# KB [25] = experiment: Growth inhibition of human KB cells implanted intraperitoneally to NCr nu/nu mouse at 72.6 to 290.7 umol/kg, ip administered from day 3 to 6 after implantation measured on day 7 by MTT-based hollow-fiber test; assay type: functional
# MCF7 [26] = experiment: Growth inhibition of human MCF7 cells implanted intraperitoneally to NCr nu/nu mouse at 72.6 to 290.7 umol/kg, ip administered from day 3 to 6 after implantation measured on day 7 by MTT-based hollow-fiber test; assay type: functional
# P388 [27] = experiment: Growth inhibition of mouse P388 cells implanted intraperitoneally to NCr nu/nu mouse at 72.6 to 290.7 umol/kg, ip administered from day 3 to 6 after implantation measured on day 7 by MTT-based hollow-fiber test; assay type: functional
# Lu1 [28] = experiment: Growth inhibition of human Lu1 cells implanted subcutaneously to NCr nu/nu mouse at 72.6 to 290.7 umol/kg, ip administered from day 3 to 6 after implantation measured on day 7 by MTT-based hollow-fiber test; assay type: functional
# SW626 [29] = experiment: Growth inhibition of human SW626 cells implanted subcutaneously to NCr nu/nu mouse at 72.6 to 290.7 umol/kg, ip administered from day 3 to 6 after implantation measured on day 7 by MTT-based hollow-fiber test; assay type: functional
# LNCaP [30] = experiment: Growth inhibition of human LNCAP cells implanted subcutaneously to NCr nu/nu mouse at 72.6 to 290.7 umol/kg, ip administered from day 3 to 6 after implantation measured on day 7 by MTT-based hollow-fiber test; assay type: functional
# SK-MEL-2 [31] = experiment: Growth inhibition of human SK-MEL-2 cells implanted subcutaneously to NCr nu/nu mouse at 72.6 to 290.7 umol/kg, ip administered from day 3 to 6 after implantation measured on day 7 by MTT-based hollow-fiber test; assay type: functional
# Mus musculus [32] = experiment: Toxicity in NCr nu/nu mouse subcutaneously implanted with human KB cells assessed as mortality at 72.6 umol/kg, ip administered on day 10, 13, 16, 20 of implantation; assay type: organism-based; settings: in vivo
# Mus musculus [33] = experiment: Toxicity in NCr nu/nu mouse subcutaneously implanted with human KB cells assessed as mortality at 145.3 umol/kg, ip administered on day 10, 13, 16, 20 of implantation; assay type: organism-based; settings: in vivo
# Mus musculus [34] = experiment: Toxicity in NCr nu/nu mouse subcutaneously implanted with human KB cells assessed as mortality at 290.7 umol/kg, ip administered on day 10, 13, 16, 20 of implantation; assay type: organism-based; settings: in vivo
# Mus musculus [35] = experiment: Toxicity in NCr nu/nu mouse subcutaneously implanted with human KB cells assessed as change in body weight at 72.6 umol/kg, ip administered on day 10, 13, 16, 20 of implantation; assay type: organism-based; settings: in vivo
# Mus musculus [36] = experiment: Toxicity in NCr nu/nu mouse subcutaneously implanted with human KB cells assessed as change in body weight at 145.3 umol/kg, ip administered on day 10, 13, 16, 20 of implantation; assay type: organism-based; settings: in vivo
# Mus musculus [37] = experiment: Toxicity in NCr nu/nu mouse subcutaneously implanted with human KB cells assessed as change in body weight at 290.7 umol/kg, ip administered on day 10, 13, 16, 20 of implantation; assay type: organism-based; settings: in vivo
# KB [38] = experiment: Growth inhibition of human KB cells implanted subcutaneously to NCr nu/nu mouse assessed as tumor size at 72.6 to 290.7 umol/kg, ip administered on day 10, 13, 16, 20 of implantation; assay type: functional, organism-based
# KB [39] = experiment: Growth inhibition of ip dosed intraperitoneally implanted human KB cells to NCr nu/nu mouse administered from day 3 to 6 after implantation measured on day 7 by MTT-based hollow-fiber test; assay type: functional, organism-based
# KB [40] = experiment: Growth inhibition of ip dosed subcutaneously implanted human KB cells to NCr nu/nu mouse administered from day 3 to 6 after implantation measured on day 7 by MTT-based hollow-fiber test; assay type: functional, organism-based
# SK-MEL-2 [41] = experiment: Growth inhibition of ip dosed intraperitoneally implanted human SK-MEL-2 cells to NCr nu/nu mouse administered from day 3 to 6 after implantation measured on day 7 by MTT-based hollow-fiber test; assay type: functional, organism-based
# SK-MEL-2 [42] = experiment: Growth inhibition of ip dosed subcutaneously implanted human SK-MEL-2 cells to NCr nu/nu mouse administered from day 3 to 6 after implantation measured on day 7 by MTT-based hollow-fiber test; assay type: functional, organism-based
# KB [43] = experiment: Growth inhibition of human KB cells implanted intraperitoneally to NCr nu/nu mouse at 553.1 umol/kg, ip administered from day 3 to 6 after implantation measured on day 7 by MTT-based hollow-fiber test; assay type: functional
# KB [44] = experiment: Growth inhibition of human KB cells implanted subcutaneously to NCr nu/nu mouse at 553.1 umol/kg, ip administered from day 3 to 6 after implantation measured on day 7 by MTT-based hollow-fiber test; assay type: functional
# Mus musculus [45] = experiment: Toxicity in NCr nu/nu mouse subcutaneously implanted with human KB cells assessed as body weight change at 553.1 umol/kg, ip administered from day 3 to 6 after implantation measured on day 7; assay type: organism-based; settings: in vivo
# [46] = Inhibition of protein farnesyltransferase
# P388 [47] = experiment: Cytotoxicity against mouse P388 cells; assay type: functional, cell-based
smiles,measurement,setting,value
CC(O)c1cc2c(o1)C(=O)c1ccccc1C2=O (stereo not drawn),inhibition (INH),Lu1 [1],0%
same,inhibition (INH),Lu1 [2],0%
same,Activity,Mus musculus [3],-0.4 g
same,Activity,Mus musculus [4],Toxic
same,Activity,Mus musculus [5],Toxic
same,IC50,SK-MEL-2 [6],1.2 µM
same,IC50,P388 [7],0.4 µM
same,IC50,MCF7 [8],2.5 µM
same,IC50,LNCaP [9],14.5 µM
same,IC50,Lu1 [10],0.8 µM
same,IC50,[11],4.9 µM
same,IC50,KB [12],2.1 µM
same,IC50,Col2,7.4 µM
same,IC50,[13],13.2 µM
same,IC50,SW626 [14],1.2 µM
C=C1C(=O)[C@@]23CC[C@@H]4[C@@]5(C)CCC[C@@]4(OC5=O)[C@@]2(C)CC[C@]1(OC)C3,inhibition (INH),KB [15],5.7%
same,inhibition (INH),MCF7 [16],0%
same,inhibition (INH),P388 [17],0%
same,Activity,Mus musculus [18],0.74 g
same,Activity,Mus musculus [19],0.03 g
same,Activity,Mus musculus [20],0.85 g
same,inhibition (INH),Lu1 [21],0%
same,inhibition (INH),SW626 [22],0%
same,inhibition (INH),LNCaP [23],50.6%
same,inhibition (INH),SK-MEL-2 [24],15.5%
same,inhibition (INH),KB [25],21.6%
same,inhibition (INH),MCF7 [26],34.4%
same,inhibition (INH),P388 [27],0%
same,inhibition (INH),Lu1 [28],0%
same,inhibition (INH),SW626 [29],16.3%
same,inhibition (INH),LNCaP [30],0%
same,inhibition (INH),SK-MEL-2 [31],11.1%
same,Activity,Mus musculus [32],Non-toxic
same,Activity,Mus musculus [33],Non-toxic
same,Activity,Mus musculus [34],Non-toxic
same,Activity,Mus musculus [35],7.9%
same,Activity,Mus musculus [36],7.6%
same,Activity,Mus musculus [37],6.6%
same,Activity,KB [38],Active
same,Activity,KB [39],Dose-dependent effect
same,Activity,KB [40],Dose-dependent effect
same,Activity,SK-MEL-2 [41],Dose-dependent effect
same,Activity,SK-MEL-2 [42],Dose-dependent effect
same,IC50,SK-MEL-2 [6],1.2 µM
same,IC50,P388 [7],0.3 µM
same,IC50,MCF7 [8],0.9 µM
same,IC50,LNCaP [9],1.2 µM
same,IC50,Lu1 [10],2 µM
same,IC50,[11],5.2 µM
same,IC50,KB [12],6.4 µM
same,IC50,Col2,3.8 µM
same,IC50,[13],3.5 µM
same,IC50,SW626 [14],0.6 µM
C=C1C(=O)O[C@@H]2C[C@]3(C)CC[C@]4(C)[C@H](CC[C@@H]5[C@@]6(C)CCC(=O)C(C)(C)[C@@H]6CC[C@]54C)[C@H]3[C@H]12 [OCHRACEOLIDE A],inhibition in vivo at 553.1 µmol/kg,KB [43],0%
same,inhibition in vivo at 553.1 µmol/kg,KB [44],0%
same,Activity,Mus musculus [45],0.5 g
same,IC50,[46],2.2 µM
same,IC50,P388 [47],0.58 µM
same,IC50,SK-MEL-2 [6],14.8 µM
same,IC50,P388 [7],3.5 µM
same,IC50,MCF7 [8],16.6 µM
same,IC50,LNCaP [9],13.1 µM
same,IC50,Lu1 [10],24.3 µM
same,IC50,[11],> 44.2 µM
same,IC50,KB [12],20.4 µM
same,IC50,Col2,19.2 µM
same,IC50,[13],32.3 µM
same,IC50,SW626 [14],35.4 µM
